{"source": "patent US8653069B2", "about": "“Aralkyl substituted piperidine or piperazine derivatives and their use for treating schizophrenia” (Jiangsu Hengyi Pharmaceutical Co., Ltd., priority 2008, dated 2014)", "key": {"in vivo": {"assay": "in vivo", "conditions": "mouse, po"}, "[1]": {"test_system": "schizophrenia behaviors in mice induced by apomorphine", "assay": "In vivo anti-schizophrenia activity: apomorphine-induced stereotyped behavior in mice", "conditions": "female KM mice, oral gavage 30 minutes before apomorphine 10 mg/kg i.p.; II-1 20 mg/kg, aripiprazole 5 mg/kg, risperidone 0.25 mg/kg", "experimental": "A Test of In Vivo Anti-Schizophrenia Activity of Compound II-1\nApomorphine: apomorphine is dissolved in 0.1% ascorbic acid to form a solution having a dosage of 10 mg/kg.\nAripiprazole is dissolved in physiological saline to form a solution having a dosage of 5 mg/kg, and subjected to ultrasonication for dissolving.\nRisperidone is dissolved in physiological saline to form a solution having a dosage of 0.25 mg/kg.\nCompound II-1 is formulated to 20 mg/kg, and is formulated in situ for use.\nFemale KM mice, 18-22 g, are randomly divided into a solvent control group, a model control group, a positive control group, and various treatment groups of the tested medicines. Groups for behavior observation test contain 5 mice each group, and groups for activity observation test contain 4 mice each group.\n(1) Administration in mice: each group of mice is administrated with 0.1 ml/10 g of the various tested medicines by oral gavage. […]\nThe stereotyped behavior numbers of the mice in various groups at six time points are statistically analyzed to calculate an average number of each mouse, and the result is denoted by mean±SD.\nThe test result of stereotyped behavior is statistically analyzed using a LSD method; and observation result of the numbers of activities of the mice is statistically analyzed with repeated-measures analysis of variance and Q-test."}, "[2]": {"test_system": "histidine auxotroph mutant of mouse salmonella TA97, TA98, TA100 and TA102", "excerpt": "Bacterial Reverse Mutation Test of II-1\nStrains: histidine auxotroph mutant of mouse salmonella TA97, TA98, TA100 and TA102.\nResults: the test consists of two parts, i.e., −S9 and +S9. […] No bacteriostatic actions to all the strains are observed at all other doses, and the growth background is good."}, "[3]": {"assay": "Oral absorption in studies on animal models", "format": "in vivo"}, "dopamine D2 receptor": {"molecular_target": "T1, dopamine D2 receptor (Homo sapiens, UniProt P14416)", "T1 construct": "expressed in transfected cells; host or cells: CHO-hD2L cells (membrane preparation)", "T1 sequence (P14416 whole entry)": "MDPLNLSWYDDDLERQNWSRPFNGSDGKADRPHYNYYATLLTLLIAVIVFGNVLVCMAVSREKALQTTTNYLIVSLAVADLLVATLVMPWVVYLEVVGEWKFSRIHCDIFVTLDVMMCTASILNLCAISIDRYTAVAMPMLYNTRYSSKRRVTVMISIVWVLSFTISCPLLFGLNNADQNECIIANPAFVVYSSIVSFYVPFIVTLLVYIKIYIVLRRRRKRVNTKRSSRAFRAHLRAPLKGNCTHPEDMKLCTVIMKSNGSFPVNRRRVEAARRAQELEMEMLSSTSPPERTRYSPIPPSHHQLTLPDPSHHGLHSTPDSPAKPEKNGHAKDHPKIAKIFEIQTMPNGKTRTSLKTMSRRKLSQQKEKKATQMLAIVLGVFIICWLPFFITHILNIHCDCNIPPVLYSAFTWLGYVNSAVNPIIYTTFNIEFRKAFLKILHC", "assay": "Dopamine D2 receptor-binding assay ([3H]Spiperone displacement)", "conditions": "inhibition of binding of 0.4 nM [3H]Spiperone, CHO-hD2L film product, room temperature 120 minutes; read-out: IC50 (affinity to D2 receptor)", "experimental": "A Dopamine D2 Receptor-Binding Assay\nAn isotope ligand for D2 receptor: [^3H]Spiperone (77.0 Ci/mmol); (+)Butaclamol; GF/C glass fiber media; a liposoluble scintillation solution; and the D2 receptor protein expressed by sf9 cells.\nA binding assay of a film product of CHO-hD2L cells and [^3H]Spiperone is conducted in a 250 μl of 50 mM of Tris-HCl […] buffer (Ph=7.4) solution comprising 100 mM of NaCl, 1 mM of MgC12 and 1% of DMSO. A sample in duplicate containing compounds to be tested, 0.4 nM of [^3H]Spiperone and 12 ug of protein is maintained at room temperature for 120 minutes. The bound radioactive ligand is separated by flash filtration under reduced pressure using Whatman GF/B glass fiber filter pre-treated with 0.3% polyethylenelmine, and radioactivity maintained on the filter is measured using liquid scintillation spectrophotometry. The title compounds in the following examples are tested using the above test, which comprises first of all testing competitive inhibition rate of each compound at a concentration of 10 umol/L to binding of [^3H]Spiperone to D2 receptor through a rough screening; and compounds having inhibition rate higher than 95% are subjected to receptor binding assay under a series of concentrations to determine a half-inhibitory concentration (IC50, the concentration of a compound needed for inhibiting binding of 50% [^3H]Spiperone to D2 receptor). Two tubes under each concentration are measured, and each compound is subjected to two independent tests."}, "rD2R": {"molecular_target": "T2, rD2R (Rattus norvegicus, UniProt P61169)", "T2 construct": "expressed in transfected cells; host or cells: CHO cells stably expressing rD2R (CHO-rD2)", "T2 sequence (P61169 whole entry)": "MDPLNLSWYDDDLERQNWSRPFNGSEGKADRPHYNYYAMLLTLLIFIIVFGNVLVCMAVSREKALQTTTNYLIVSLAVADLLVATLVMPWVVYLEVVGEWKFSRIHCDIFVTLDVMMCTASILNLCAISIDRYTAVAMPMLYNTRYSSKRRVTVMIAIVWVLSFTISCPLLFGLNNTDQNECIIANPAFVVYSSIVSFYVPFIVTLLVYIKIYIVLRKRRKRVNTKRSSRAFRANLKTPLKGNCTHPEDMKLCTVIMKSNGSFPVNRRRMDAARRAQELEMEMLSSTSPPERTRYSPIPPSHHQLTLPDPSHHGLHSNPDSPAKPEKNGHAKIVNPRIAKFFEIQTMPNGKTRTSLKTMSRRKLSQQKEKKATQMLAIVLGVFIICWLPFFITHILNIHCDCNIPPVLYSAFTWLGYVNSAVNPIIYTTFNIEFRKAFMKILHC", "assay": "Antagonistic test of D2 receptor (cAMP radioimmunoassay, Forskolin + Dopamine, CHO-rD2 cells)", "format": "cell-based", "conditions": "10 μM Forskolin + 10 μM Dopamine, cAMP generated", "experimental": "An Antagonistic Test of D2 Receptor\nCHO-rD2 cell is seeded on a 96-well plate at a concentration of 30,000 cells/well, and cultured overnight; each medicine is dissolved in a serum-free F12 culture media containing 100 μM of IBMX, and is added to the above cell for preculturing 30 minutes at 37° C.; thereafter a serum-free F12 culture media containing 10 μM of Forskolin and 10 μM of Dopamine is added and react for 8 minutes, and then 100 μl of pre-cooled 1M HClO4 is added to terminate the reaction. The reaction solution is allowed to stand on ice for 40 minutes, and thereto 20 μl of 2M K2CO3 is added to neutralize the reaction solution. The reaction solution is centrifuged at 3,000 rpm for 15 minutes at 4° C., and a KClO4 deposit is discarded. An amount of supernatant is diluted in 0.05M of acetic acid buffer, and the amount of generated cAMP is measured with radioimmunoassay method. […] See the kit's instructions for detailed steps. Two tubes under each concentration of each compound are measured, and each compound is subjected to two independent tests.\nThe ordinate of the dose-effect curve represents a reduced percentage of the amount of generated cAMP through antagonist of DA by the compound."}}, "note": "pIC50: −log10 of the molar value. Where a name gives a salt, the structure may show the parent alone. Read-outs that look alike come from different tables or passages of the source.", "data": [{"smiles": "Cc1nc2n(c(=O)c1CCN1CCC(c3noc4cc(F)ccc34)CC1)CCCC2", "note": "[risperidone]", "values": [{"measurement": "LD50", "setting": "in vivo", "value": 83.2, "unit": "mg/kg"}, {"measurement": "number of stereotyped activities of mice compared with the model group", "setting": "[1]", "value": "reduced significantly"}]}, {"smiles": "O=C1CCc2ccc(OCCCCN3CCC(c4noc5cc(F)ccc45)CC3)cc2N1", "note": "[II-1, 7-[4-(4-(6-fluoro-benzisoxazolyl)-1-piperidinyl)-n-butoxy]-3,4-dihydro-2(1H)-quinolinone hydrochloride]", "values": [{"measurement": "Ames test", "setting": "[2]; TA97, TA98, TA100, TA102, with or without S9, all tested doses", "value": "negative"}, {"measurement": "dose showing bacteriostatic action", "setting": "[2]; TA97, test system containing S9", "value": 5000, "unit": "μg per dish"}, {"measurement": "dose showing bacteriostatic action", "setting": "[2]; TA98, test system without S9", "value": 5000, "unit": "μg per dish"}, {"measurement": "LD50", "setting": "in vivo", "value": "> 2000", "unit": "mg/kg"}, {"measurement": "oral absorption", "setting": "[3]", "value": "good"}, {"measurement": "pIC50", "setting": "dopamine D2 receptor", "value": 8.25}, {"measurement": "pIC50", "setting": "rD2R", "value": 5.47}]}, {"smiles": "O=C1CCc2ccc(OCCCCN3CCN(c4cccc(Cl)c4Cl)CC3)cc2N1", "note": "[aripiprazole]", "values": [{"measurement": "LD50", "setting": "in vivo", "value": 1400, "unit": "mg/kg"}, {"measurement": "number of stereotyped activities of mice compared with the model group", "setting": "[1]", "value": "reduced significantly"}]}]}
